Data published in PubChem BioAssay AID1963958 (Molecular Pharmacology Branch, DTP, NCI, 2024).

Test system: MDA-MB-231 multicell spheroids, viability
Test: Anticancer human tumor MDA-MB-231 cell line growth inhibition [PI3K];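 also: spheroids exposed to agents for seven days before reading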;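 as to viability, T/C: percent of vehicle control luminescence with DMSO treated spheroids as 100%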
Settings: for IC50: curve of first compound; for viability, T/C: stronger effect = lower value
Description: Combinatorial screen of targeted agents with the PI3K inhibitors inavolisib, alpelisib, duvelisib, and copanlisib in multi-cell type tumor spheroids
A high-throughput screen of multi-cell type tumor spheroids was designed to identify active combinations of targeted small molecules and PI3K pathway inhibitors. Complex spheroids include a stromal component modeled by human endothelial cells (HUVEC) and fibroblasts modeled by human mesenchymal stem cells (MSCs). The concentration ranges selected for each drug and investigational agent were based upon clinically achievable concentrations if the clinical Cmax of the agent was known.
Compounds. The drugs and investigational agents: inavolisib (NSC800729), alpelisib (NSC765974), duvelisib (NSC772469), copanlisib (NSC816437), ipatasertib (NSC767898), afuresertib (NSC778305), talazoparib (NSC767125), sapanisertib (NSC764658), selumetinib (NSC741078), tovorafenib (DAY101, NSC766906), vemurafenib (NSC761431), ravoxertinib (NSC781343), sotorasib (NSC818433), MRTX1133 (NSC 836407), abemaciclib (NSC 768073), palbociclib (NSC758247), venetoclax (NSC 766270), SY5609 (NSC837396), enzalutamide (NSC755605), and darolutamide (NSC825331), were obtained from the National Cancer Institute (NCI) Developmental Therapeutics Program Chemical Repository. The FDA-approved anticancer drug set is available from the NCI Developmental Therapeutics Program. […] The stock solutions were prepared in dimethyl sulfoxide (DMSO, Sigma-Aldrich, St. Louis, MO, cat. D2650) at 800-fold the tested concentration and stored at -70 degrees C prior to their use. All drugs and investigational agents were tested over a range starting from a high concentration at or near the clinical Cmax and decreasing in half-log increments. If the clinical Cmax for an agent had not been determined, the highest concentration tested was 10 microM.
Cell Culture. All cells were maintained in an incubator at 37 degrees C and 5% CO2 with 95% humidity. The PDC lines were cultured according to standard operating procedures established by the NCI PDMR (https://pdmr.cancer.gov/sops/default.htm). All PDCs were thawed and cultured in Matrigel-coated flasks prepared with a working solution of 1X Ham's F-12 nutrient mix, without supplementation (Invitrogen, Waltham, MA, cat. 11765054), 100 U/mL penicillin-streptomycin (Invitrogen, cat. 15140122), and 2.5% Matrigel (Corning Inc., Corning, NY, cat. 354248) for the first three passages. The 354836-022-R-J1-PDC, 475296-252-R-J1-PDC, and 997726-040-R-J2-PDC lines were cultured in 6A media, which includes advanced DMEM/F-12 (Thermo Fisher Scientific, cat. 12634028), 10 mM HEPES (Thermo Fisher Scientific, cat. 15630080), 1X GlutaMAX supplement (Thermo Fisher Scientific, cat. 35050061), 0.1 mg/mL primocin (InvivoGen, San Diego, CA, cat. ant-pm-2), 10% defined fetal bovine serum, heat inactivated (HyClone Laboratories Inc., Logan, UT, cat. SH30070.03HI), 50% L-WRN conditioned media (ATCC, cat. CRL-3276), 1.25 mM N-Acetyl-L-cysteine (Sigma-Aldrich, cat. A9165), 10 mM nicotinamide (Sigma-Aldrich, cat. N0636), 1X B-27 supplement (Thermo Fisher Scientific, cat. 17504044), 1X N-2 supplement (Thermo Fisher Scientific, cat. 17502048), and 10 microM Y-27632 dihydrochloride (Tocris Bioscience, Bristol, United Kingdom, cat. 1254). The 624824-186-R-J2-PDC line was cultured in 6C/Colon 1B media, which includes all 6A media components plus 50 ng/mL human EGF recombinant protein (Thermo Fisher Scientific, cat. PHG0311). […]

[1] = second compound 0.00316 µM, first compound 0.000316 µM
[2] = second compound 0.00316 µM, first compound 0.001 µM
[3] = second compound 0.00316 µM, first compound 0.00316 µM
[4] = second compound 0.00316 µM, first compound 0.01 µM
[5] = second compound 0.00316 µM, first compound 0.0316 µM
[6] = second compound 0.00316 µM, first compound 0.1 µM
[7] = second compound 0.01 µM, first compound 0.000316 µM
[8] = second compound 0.01 µM, first compound 0.001 µM
[9] = second compound 0.01 µM, first compound 0.00316 µM
[10] = second compound 0.01 µM, first compound 0.01 µM
[11] = second compound 0.01 µM, first compound 0.0316 µM
[12] = second compound 0.01 µM, first compound 0.1 µM
[13] = second compound 0.0316 µM, first compound 0.000316 µM
[14] = second compound 0.0316 µM, first compound 0.001 µM
[15] = second compound 0.0316 µM, first compound 0.00316 µM
[16] = second compound 0.0316 µM, first compound 0.01 µM
[17] = second compound 0.0316 µM, first compound 0.0316 µM
[18] = second compound 0.0316 µM, first compound 0.1 µM
[19] = second compound 0.1 µM, first compound 0.000316 µM
[20] = second compound 0.1 µM, first compound 0.001 µM
[21] = second compound 0.1 µM, first compound 0.00316 µM
[22] = second compound 0.1 µM, first compound 0.01 µM
[23] = second compound 0.1 µM, first compound 0.0316 µM
[24] = second compound 0.1 µM, first compound 0.1 µM
[25] = second compound 0.316 µM, first compound 0.000316 µM
[26] = second compound 0.316 µM, first compound 0.001 µM
[27] = second compound 0.316 µM, first compound 0.00316 µM
[28] = second compound 0.316 µM, first compound 0.01 µM
[29] = second compound 0.316 µM, first compound 0.0316 µM
[30] = second compound 0.316 µM, first compound 0.1 µM
[31] = second compound 1 µM, first compound 0.000316 µM
[32] = second compound 1 µM, first compound 0.001 µM
[33] = second compound 1 µM, first compound 0.00316 µM
[34] = second compound 1 µM, first compound 0.01 µM
[35] = second compound 1 µM, first compound 0.0316 µM
[36] = second compound 1 µM, first compound 0.1 µM

`CC(=O)c1c(C)c2cnc(Nc3ccc(N4CCNCC4)cn3)nc2n(C2CCCC2)c1=O` + CC(Nc1ccc2c(c1)OCCn1cc(N3C(=O)OCC3C(F)F)nc1-2)C(N)=O gave an IC50 (second compound 0.00316 µM) of 74.4 nM, an IC50 (second compound 0.01 µM) of 60.6 nM and an IC50 (second compound 0.0316 µM) of 34.4 nM. For the same compound, the IC50 (second compound 0.1 µM) was 15.4 nM, the IC50 (second compound 0.316 µM) was 10.1 nM and the IC50 (second compound 1 µM) was 4.52 nM. It also gave a viability, T/C [1] of 108%, a viability, T/C [2] of 91.5% and a viability, T/C [3] of 98.1%. It also gave a viability, T/C [4] of 90.2%, a viability, T/C [5] of 67.4% and a viability, T/C [6] of 43.5%. The viability, T/C [7] was 94.1%, the viability, T/C [8] was 92.6% and the viability, T/C [9] was 95.7%. The viability, T/C [10] was 72.1%, the viability, T/C [11] was 67% and the viability, T/C [12] was 38.7%. It also gave a viability, T/C [13] of 80.1%, a viability, T/C [14] of 75.7% and a viability, T/C [15] of 79.9%. For the same compound, the viability, T/C [16] was 69%, the viability, T/C [17] was 51.8% and the viability, T/C [18] was 31.6%. For the same compound, the viability, T/C [19] was 71.3%, the viability, T/C [20] was 65.7% and the viability, T/C [21] was 65.1%. The viability, T/C [22] was 55.2%, the viability, T/C [23] was 41.3% and the viability, T/C [24] was 27.9%. The viability, T/C [25] was 65.8%, the viability, T/C [26] was 64% and the viability, T/C [27] was 61.3%. It also gave a viability, T/C [28] of 48.2%, a viability, T/C [29] of 37.9% and a viability, T/C [30] of 24.3%. The viability, T/C [31] was 60.9%, the viability, T/C [32] was 55.1% and the viability, T/C [33] was 51.9%. It also gave a viability, T/C [34] of 46.2%, a viability, T/C [35] of 35.9% and a viability, T/C [36] of 23.4%.

In the case of `CC(C)n1nc(-c2ccc3oc(N)nc3c2)c2c(N)ncnc21` + CC(Nc1ccc2c(c1)OCCn1cc(N3C(=O)OCC3C(F)F)nc1-2)C(N)=O, the IC50 (second compound 0.00316 µM) is reported as 34.9 nM, the IC50 (second compound 0.01 µM) is reported as 27.5 nM and the IC50 (second compound 0.0316 µM) is reported as 12.8 nM. It also gave an IC50 (second compound 0.1 µM) of 5.12 nM, an IC50 (second compound 0.316 µM) of 3.46 nM and an IC50 (second compound 1 µM) of 2.13 nM. It also gave a viability, T/C [1] of 101%, a viability, T/C [2] of 92.6% and a viability, T/C [3] of 94.5%. For the same compound, the viability, T/C [4] was 77.4%, the viability, T/C [5] was 51.8% and the viability, T/C [6] was 31.5%. It also gave a viability, T/C [7] of 89.1%, a viability, T/C [8] of 93.7% and a viability, T/C [9] of 89%. It also gave a viability, T/C [10] of 66%, a viability, T/C [11] of 50% and a viability, T/C [12] of 30.5%. The viability, T/C [13] was 81%, the viability, T/C [14] was 74.6% and the viability, T/C [15] was 65.4%. It also gave a viability, T/C [16] of 54.2%, a viability, T/C [17] of 37.7% and a viability, T/C [18] of 25.5%. For the same compound, the viability, T/C [19] was 68.6%, the viability, T/C [20] was 63% and the viability, T/C [21] was 55.2%. For the same compound, the viability, T/C [22] was 42.7%, the viability, T/C [23] was 33.2% and the viability, T/C [24] was 21.3%. It also gave a viability, T/C [25] of 65.3%, a viability, T/C [26] of 60.2% and a viability, T/C [27] of 49.5%. The viability, T/C [28] was 41.7%, the viability, T/C [29] was 28.5% and the viability, T/C [30] was 19.9%. It also gave a viability, T/C [31] of 58.8%, a viability, T/C [32] of 54.7% and a viability, T/C [33] of 48.3%. The viability, T/C [34] was 36.6%, the viability, T/C [35] was 27.9% and the viability, T/C [36] was 17.3%.

Compound `CCCS(=O)(=O)Nc1ccc(F)c(C(=O)c2c[nH]c3ncc(-c4ccc(Cl)cc4)cc23)c1F` + CC(Nc1ccc2c(c1)OCCn1cc(N3C(=O)OCC3C(F)F)nc1-2)C(N)=O has an IC50 (second compound 0.00316 µM) of 4510 nM, an IC50 (second compound 0.01 µM) of 3620 nM and an IC50 (second compound 0.0316 µM) of 2440 nM. For the same compound, the IC50 (second compound 0.1 µM) was 1870 nM, the IC50 (second compound 0.316 µM) was 1240 nM and the IC50 (second compound 1 µM) was 1090 nM. The viability, T/C [5] was 98.5%, the viability, T/C [6] was 94.9% and the viability, T/C (second compound 0.00316 µM, first compound 0.316 µM) was 100%. For the same compound, the viability, T/C (second compound 0.00316 µM, first compound 1 µM) was 86.9%, the viability, T/C (second compound 0.00316 µM, first compound 3.16 µM) was 59.2% and the viability, T/C (second compound 0.00316 µM, first compound 10 µM) was 29.9%. For the same compound, the viability, T/C [11] was 98.3%, the viability, T/C [12] was 102% and the viability, T/C (second compound 0.01 µM, first compound 0.316 µM) was 93.3%. For the same compound, the viability, T/C (second compound 0.01 µM, first compound 1 µM) was 80.3%, the viability, T/C (second compound 0.01 µM, first compound 3.16 µM) was 52.8% and the viability, T/C (second compound 0.01 µM, first compound 10 µM) was 29.5%. The viability, T/C [17] was 80.5%, the viability, T/C [18] was 81.6% and the viability, T/C (second compound 0.0316 µM, first compound 0.316 µM) was 79.9%. It also gave a viability, T/C (second compound 0.0316 µM, first compound 1 µM) of 66.3%, a viability, T/C (second compound 0.0316 µM, first compound 3.16 µM) of 45.5% and a viability, T/C (second compound 0.0316 µM, first compound 10 µM) of 26.6%. The viability, T/C [23] was 80.8%, the viability, T/C [24] was 71.4% and the viability, T/C (second compound 0.1 µM, first compound 0.316 µM) was 68.6%. For the same compound, the viability, T/C (second compound 0.1 µM, first compound 1 µM) was 61.4%, the viability, T/C (second compound 0.1 µM, first compound 3.16 µM) was 41% and the viability, T/C (second compound 0.1 µM, first compound 10 µM) was 23.9%. It also gave a viability, T/C [29] of 72%, a viability, T/C [30] of 68.4% and a viability, T/C (second compound 0.316 µM, first compound 0.316 µM) of 61.7%. The viability, T/C (second compound 0.316 µM, first compound 1 µM) was 54.7%, the viability, T/C (second compound 0.316 µM, first compound 3.16 µM) was 36.7% and the viability, T/C (second compound 0.316 µM, first compound 10 µM) was 21.7%. For the same compound, the viability, T/C [35] was 65.4%, the viability, T/C [36] was 63.4% and the viability, T/C (second compound 1 µM, first compound 0.316 µM) was 59.8%. For the same compound, the viability, T/C (second compound 1 µM, first compound 1 µM) was 51%, the viability, T/C (second compound 1 µM, first compound 3.16 µM) was 36.9% and the viability, T/C (second compound 1 µM, first compound 10 µM) was 21.4%.
